Values of other authors as cited in patent US20230285429A1, “CANNABINOID ACID FORMULATIONS, DELIVERY SYSTEMS, AND METHODS OF USE” (Flora Growth U.S. Holdings Corp., priority 2022, published 2023).

Test system: pseudovirus expressing the spike protein
Conditions: human epithelial cell lines, CBGA or CBDA individually

| Compound | infection by pseudovirus expressing the spike protein |
| --- | --- |
| CCCCCc1cc(O)c(C/C=C(\C)CCC=C(C)C)c(O)c1C(=O)O [CBGA, cannabigerolic acid] | reduce infection |
| C=C(C)[C@@H]1CCC(C)=C[C@H]1c1c(O)cc(CCCCC)c(C(=O)O)c1O [CBDA, cannabidiolic acid] | reduce infection |
